# Assays:
# medaka Esr1 (mEsr1) [1] = molecular target: T1, medaka Esr1 (mEsr1) (Oryzias latipes, UniProt P50241); test: Medaka Esr1 reporter gene assay, antagonist assay; format: cell-based, Japanese medaka (Oryzias latipes)
# T1 sequence (P50241 1-620): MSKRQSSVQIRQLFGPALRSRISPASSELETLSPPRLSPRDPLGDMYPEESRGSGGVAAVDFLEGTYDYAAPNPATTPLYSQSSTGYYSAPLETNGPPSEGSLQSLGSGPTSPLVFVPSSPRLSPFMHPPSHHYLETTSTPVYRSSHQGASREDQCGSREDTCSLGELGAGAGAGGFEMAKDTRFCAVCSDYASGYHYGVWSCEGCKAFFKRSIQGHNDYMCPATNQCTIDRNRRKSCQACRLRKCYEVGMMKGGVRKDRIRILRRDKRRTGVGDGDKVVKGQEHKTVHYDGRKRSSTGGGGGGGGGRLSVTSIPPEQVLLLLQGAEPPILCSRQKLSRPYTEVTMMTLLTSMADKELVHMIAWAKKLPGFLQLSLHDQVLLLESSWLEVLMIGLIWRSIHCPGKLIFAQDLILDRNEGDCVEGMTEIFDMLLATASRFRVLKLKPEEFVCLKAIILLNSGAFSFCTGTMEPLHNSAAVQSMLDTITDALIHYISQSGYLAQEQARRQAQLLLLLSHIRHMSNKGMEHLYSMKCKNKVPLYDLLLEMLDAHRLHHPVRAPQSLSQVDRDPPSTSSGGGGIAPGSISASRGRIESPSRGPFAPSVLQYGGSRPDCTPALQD
# medaka ARβ (mArβ) [2] = molecular target: T2, medaka ARβ (mArβ) (Oryzias latipes, UniProt D1MV73); test: Medaka ARβ reporter gene assay, agonist assay; format: cell-based, Japanese medaka (Oryzias latipes); details: MAC = 1.0 × 10^−4 M
# T2 sequence (D1MV73 1-744): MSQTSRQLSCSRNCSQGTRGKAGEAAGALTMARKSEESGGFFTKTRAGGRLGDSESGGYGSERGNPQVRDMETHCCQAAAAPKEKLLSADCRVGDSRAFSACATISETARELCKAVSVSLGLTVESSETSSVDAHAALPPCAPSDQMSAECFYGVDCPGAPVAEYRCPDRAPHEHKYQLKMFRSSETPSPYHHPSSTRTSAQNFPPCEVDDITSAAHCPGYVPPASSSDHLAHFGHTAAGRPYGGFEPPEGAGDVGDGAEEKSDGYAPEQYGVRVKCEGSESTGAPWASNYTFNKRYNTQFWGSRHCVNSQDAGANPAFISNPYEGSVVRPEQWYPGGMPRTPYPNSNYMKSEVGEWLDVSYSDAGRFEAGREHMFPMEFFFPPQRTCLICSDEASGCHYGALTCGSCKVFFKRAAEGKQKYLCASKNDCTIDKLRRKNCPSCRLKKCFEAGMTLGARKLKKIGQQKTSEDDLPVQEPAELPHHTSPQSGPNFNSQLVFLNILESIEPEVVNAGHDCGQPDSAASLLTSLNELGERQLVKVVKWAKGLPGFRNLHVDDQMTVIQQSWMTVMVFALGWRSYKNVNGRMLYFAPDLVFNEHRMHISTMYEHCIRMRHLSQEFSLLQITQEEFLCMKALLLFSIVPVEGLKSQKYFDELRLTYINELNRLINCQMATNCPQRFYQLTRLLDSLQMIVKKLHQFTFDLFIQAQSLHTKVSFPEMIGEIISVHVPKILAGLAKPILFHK
# medaka ARβ (mArβ) [3] = molecular target: T2, medaka ARβ (mArβ); test: Medaka ARβ reporter gene assay, antagonist assay; format: cell-based, Japanese medaka (Oryzias latipes); details: 11‐KT spiked at 50 nM (D); MAC = 3.2 × 10^−5 M
# [4] = system: Japanese medaka (Oryzias latipes); test: Fish Short‐Term Reproduction Assay; format: in vivo; details: for GSI Female / GSI Male / HSI Male / Length Female / Length Male / Weight Female / Weight Male: completion of exposure
# medaka Esr1 (mEsr1) [5] = molecular target: T1, medaka Esr1 (mEsr1); test: cell-based; set-up: species or system Japanese medaka (Oryzias latipes); details: MAC = 1.0 × 10^−4 M
# [6] = 18.5 mg/L measured, 21 d, sig. ↑ vs control
# [7] = measured concentration 2.25 mg/L
# [8] = measured concentration 4.76 mg/L
# [9] = measured concentration 8.72 mg/L
# [10] = measured concentration 18.5 mg/L
structure (smiles),measurement,setting,value
"O=C1NC(=O)C(c2ccccc2)(c2ccccc2)N1 [PHT, Phenitoin, reference compound]",Antagonistic activity on mEsr1 (in words),medaka Esr1 (mEsr1) [1]; antagonist assays,inhibited the transcriptional activity on mEsr1 by E2
same,In vitro positive: aEsr,medaka Esr1 (mEsr1) [1]; mode of action in which IC50 or IC30 was obtained in RGA,aEsr
same,IC50,"medaka Esr1 (mEsr1) [1]; read-out: Antagonistic activity IC50, E2 spiked at 0.2 nM (A)",2100 nM
same,Agonistic activity,medaka ARβ (mArβ) [2],NE (MAC = 1.0 × 10^−4 M)
same,Antagonistic activity,medaka ARβ (mArβ) [3],NE (MAC = 3.2 × 10^−5 M)^(D)
same,Fertility rate,"[4]; 2.25 mg/L measured, 21 d",92 ± 2.8%
same,"Hepatic VTG, female","[4]; 2.25 mg/L measured, 21 d",685 ± 110 ng/mg‐liver
same,"Hepatic VTG, male","[4]; 2.25 mg/L measured, 21 d",1.4 ± 0.5 ng/mg‐liver
same,Mortality,"[4]; 2.25 mg/L measured, 21 d",0.0%
same,"Mortality, number of dead fish","[4]; 2.25 mg/L measured, 21 d",0
same,Number of fertilized eggs (per female per day),"[4]; 2.25 mg/L measured, 21 d",18 ± 4.3
same,Number of total eggs (per female per day),"[4]; 2.25 mg/L measured, 21 d",20 ± 5.0
same,SSC female (joint plates with papillary processes),"[4]; 2.25 mg/L measured, 21 d",0 ± 0
same,SSC male (joint plates with papillary processes),"[4]; 2.25 mg/L measured, 21 d",95 ± 14
same,Abnormal behavior (in words),[4]; 4.76 mg/L and above,fish frequently showed abnormal behavior such as loss of balance
same,Fertility rate,"[4]; 4.76 mg/L measured, 21 d",86 ± 9.3%
same,"Hepatic VTG, female","[4]; 4.76 mg/L measured, 21 d","1,013 ± 183 ng/mg‐liver"
same,"Hepatic VTG, male","[4]; 4.76 mg/L measured, 21 d",4.2 ± 6.7 ng/mg‐liver
same,Mortality,"[4]; 4.76 mg/L measured, 21 d",0.0%
same,"Mortality, number of dead fish","[4]; 4.76 mg/L measured, 21 d",0
same,Number of fertilized eggs (per female per day),"[4]; 4.76 mg/L measured, 21 d",17 ± 3.2
same,Number of total eggs (per female per day),"[4]; 4.76 mg/L measured, 21 d",20 ± 2.0
same,SSC female (joint plates with papillary processes),"[4]; 4.76 mg/L measured, 21 d",0 ± 0
same,"Hepatic VTG, female","[4]; 8.72 mg/L measured, 21 d",661 ± 199 ng/mg‐liver
same,"Hepatic VTG, male","[4]; 8.72 mg/L measured, 21 d",1.0 ± 0.4 ng/mg‐liver
same,Mortality,"[4]; 8.72 mg/L measured, 21 d",4.2%
same,"Mortality, number of dead fish","[4]; 8.72 mg/L measured, 21 d",1
same,SSC female (joint plates with papillary processes),"[4]; 8.72 mg/L measured, 21 d",0 ± 0
same,SSC male (joint plates with papillary processes),"[4]; 8.72 mg/L measured, 21 d",99 ± 21
same,Fertility rate,"[4]; 8.72 mg/L measured, 21 d, sig. ↓ vs control",49 ± 12%
same,"Hepatic VTG, female","[4]; 18.5 mg/L measured, 21 d",693 ± 243 ng/mg‐liver
same,"Hepatic VTG, male","[4]; 18.5 mg/L measured, 21 d",1.4 ± 0.9 ng/mg‐liver
same,SSC female (joint plates with papillary processes),"[4]; 18.5 mg/L measured, 21 d",0 ± 0
same,SSC male (joint plates with papillary processes),"[4]; 18.5 mg/L measured, 21 d",85 ± 15
same,Mortality,[4]; [6],33%
same,"Mortality, number of dead fish",[4]; [6],8
same,Fertility rate,"[4]; 18.5 mg/L measured, 21 d, sig. ↓ vs control",18 ± 4.1%
same,Change of hepatic VTG levels in females (in words),[4]; 21 d,did not reduce
same,"Fecundity, number of total eggs (in words)",[4]; 21 d,statistically significant decrease
same,LOECmVTG,[4]; LOEC on VTG induction in males,"ND (>18,500) μg/L"
same,LOECREPRO,[4]; LOEC on reproduction (fecundity and/or fertility),"8,720 μg/L"
same,LOECTOX,[4]; lowest observed effect concentration on mortality,"4,760 μg/L"
same,GSI Female,[4]; [7],8.3 ± 0.8%
same,GSI Male,[4]; [7],1.32 ± 0.77%
same,HSI Male,[4]; [7],1.4 ± 0.36%
same,Length Female,[4]; [7],35.9 ± 0.4 mm
same,Length Male,[4]; [7],35.9 ± 0.6 mm
same,Weight Female,[4]; [7],466 ± 26 mg
same,Weight Male,[4]; [7],435 ± 26 mg
same,GSI Female,[4]; [8],9.0 ± 1.4%
same,GSI Male,[4]; [8],1.00 ± 0.26%
same,HSI Male,[4]; [8],1.6 ± 0.35%
same,Length Female,[4]; [8],35.5 ± 1.0 mm
same,Length Male,[4]; [8],36.5 ± 1.5 mm
same,Weight Female,[4]; [8],463 ± 10 mg
same,Weight Male,[4]; [8],435 ± 63 mg
same,GSI Female,[4]; [9],19.3 ± 10%
same,GSI Male,[4]; [9],1.04 ± 0.31%
same,HSI Male,[4]; [9],2.2 ± 0.30%
same,Length Female,[4]; [9],36.0 ± 0.5 mm
same,Length Male,[4]; [9],36.5 ± 0.1 mm
same,Weight Female,[4]; [9],576 ± 28 mg
same,Weight Male,[4]; [9],415 ± 31 mg
same,GSI Female,[4]; [10],17.0 ± 9.7%
same,GSI Male,[4]; [10],0.44 ± 0.26%
same,HSI Male,[4]; [10],3.4 ± 0.47%
same,Length Female,[4]; [10],37.5 ± 1.4 mm
same,Length Male,[4]; [10],38.4 ± 1.4 mm
same,Weight Female,[4]; [10],609 ± 67 mg
same,Weight Male,[4]; [10],507 ± 83 mg
same,Agonistic activity,medaka Esr1 (mEsr1) [5],NE (MAC = 1.0 × 10^−4 M)

# Source: article PMC9297976 (Journal of Applied Toxicology, 2021)
